Read-outs that look alike come from different tables or passages of the source.
Experiments:
MCF7 cells [1] = experiment: MTT cell viability assay, MCF7; type: cell-based, human; settings: read-out: Cytotoxicity IC50, MCF7
Description: (§1) The cell viability assay was performed according to the procedure previously described with minor modifications. Briefly, MCF7, HCT-116 and fR2 cells were plated in 96 well plates at a density of 5 × 10^3 cells per well and incubated overnight. […] MTT dye solution (2.5 mg/mL) was introduced to the cells in medium 4 h before the completion of the treatment period and the formed formazan crystals were solubilized with DMSO. Optical density was measured with the help of a UV-visible spectrophotometer coupled with microplate reader (TECAN, Infinite M200 Pro), the percent inhibition was calculated and IC50 values were determined with the help of GraphPad Prism software (GraphPad software Inc. CA, USA).
(§2) Data were expressed as the mean ± standard deviation of three independent experiments performed and analyzed by Student’s t-test. IC50 values were determined with the help of GraphPad Prism software Version 5.0 (GraphPad Software, Inc., USA) by taking the log of inhibitor vs. response. A 2-sided value of *P < 0.05 was considered significant in all cases.

HCT-116 cells [2] = experiment: MTT cell viability assay, HCT-116; type: cell-based, human; settings: read-out: Cytotoxicity IC50, HCT-116
Description: as §1, §2

[3] = MTT cell viability assay, fR2 normal breast epithelial cells; type: cell-based, human; settings: human, fR2 normal breast epithelial cells, read-out: Cytotoxicity IC50, fR2
Description: as §1, §2

fR2 cells [4] = experiment: as above; type: cell-based, human; settings: 48 h, read-out: Cytotoxicity IC50, fR2
Description: as §1, §2

MCF7 cells [5] = experiment: SA-β-gal activity assay, MCF7; type: cell-based, human; settings: MCF7, sub-toxic concentrations, five days
Description: (§3) The procedure was followed as described previously with some modifications. Briefly, MCF7 and HCT-116 cells (0.4 × 10^6 per well) were seeded in six-well plates and treated with indicated concentrations of W-2b along with WA, vehicle and positive control doxorubicin for five days. Cells were accordingly washed twice with PBS, fixed with 4% paraformaldehyde for 5 min, rinsed twice with PBS and incubated with freshly prepared staining solution (40 mM citric acid/Na phosphate buffer, 5 mM K4[Fe(CN)6] 3H2O, 5 mM K3[Fe(CN)6], 150 mM sodium chloride, 2 mM magnesium chloride and 1 mg/ml X-gal in distilled water, pH 6.0) for 48 h at 37 °C. Stained cells were thoroughly washed and air dried in dark. Cells were then observed under bright field microscope (NIKON) for the SA-β-gal positive cells and images were captured at 20x magnification.

HCT-116 cells [6] = experiment: SA-β-gal activity assay, HCT-116; type: cell-based, human; settings: HCT-116, sub-toxic concentrations, five days
Description: as §3

fR2 cells [7] = experiment: SA-β-gal staining, fR2; type: cell-based, human; settings: fR2, sub-toxic doses 1–2 µM
MCF7 cells [8] = experiment: Colony formation (clonogenic) assay, MCF7; type: cell-based; settings: Homo sapiens, 120 h; MCF7, 1.0 µM, five days
Description: (§4) The experiment was carried out according to the standardized protocol with some modifications. MCF7 and HCT-116 cells were trypsinized properly, seeded in 6 well plates at a density of 1 × 10^3 cells/well and incubated overnight. Then treatment was given to the cells with vehicle, doxorubicin and various concentrations of W-2b for five days. Cells were then washed, fixed with 4% paraformaldehyde for 10 min, rewashed twice and stained with 0.25% crystal violet solution for 1 h. The wells containing the cells were then washed thoroughly with distilled water to remove any extra stains and then air dried overnight. The plate was then observed under an inverted microscope and colonies from three random fields were counted, averaged and photographed with NIKON camera (D3100) at 4x magnification.

HCT-116 cells [9] = experiment: Colony formation (clonogenic) assay, HCT-116; type: cell-based; settings: Homo sapiens, 120 h; HCT-116, 1.5 µM, five days
Description: as §4

MCF7 cells [10] = experiment: Flow cytometric cell cycle analysis (propidium iodide), MCF7; type: cell-based, human; settings: MCF7, 1.0 µM, 48 h; vehicle 13.03%
Description: MCF7 cells were seeded at a density of 0.4 × 10^6 cells/well in 35 mm dishes and incubated overnight at 37 °C and 5% CO2. Next day, cells were treated with vehicle and W-2b at indicated concentrations for 48 h. They were then trypsinized, centrifuged at 2000 rpm for 3 min, washed twice with ice-cold PBS and fixed with ice-cold 70% ethanol (v/v) for 1 hour at 4 °C. Cells were then pelleted down at 2000 rpm for 3 min, washed with PBS and incubated first with 200 μg/ml of RNase A in PBS at 37 °C water bath for 90 min and then with 50 μg/mL of propidium iodide (PI) at room temperature for 30 min in dark. The samples were then analyzed by BD Accuri C6 flow cytometer (BD Biosciences).

[11] = system: 4T1 mouse mammary carcinoma; experiment: In vivo tumor growth, 4T1 mouse mammary carcinoma model; settings: 25 mg/kg b.w. intraperitoneal
Description: The experiment was performed according to the pre-standardized protocol with minor modifications. To evaluate the in vivo anti-tumor efficacy of W-2b, healthy female Balb/c mice (25–30 g) were taken. Animals were randomized into three groups, and six animals were taken per group. For the tumor cells implantation, mouse mammary carcinoma 4T1 cells (1 × 10^6 per 200 μL) diluted in serum-free RPMI medium were injected subcutaneously into the mammary pad of each mouse around the second right mammary gland. A week after tumor cell implantation, when the palpable mammary tumors develop, mice were injected intraperitoneally with either vehicle (normal saline) or 5-FU (25 mg/kg/b.w.) or W-2b (25 mg/kg/b.w.) in each alternative day for two weeks. Tumor sizes were measured in each alternate day after tumor cell injection, and the body weight was recorded once in a week. Mice were sacrificed on the 15th day after treatment initiation, and tumors were dissected out carefully from the mammary pad area.

Compound `CC1=C(CO)C(=O)OC(C(C)C2CCC3C4CC5OC56C(O)C5ON=C(c7ccc([N+](=O)[O-])cc7)C5C(=O)C6(C)C4CCC23C)C1` (stereo not drawn) [W-2b, 4-nitrophenyl-2-isoxazoline withaferin A] has an IC50 (MCF7 cells [1]; 48 h) of 0.705 ± 0.059 µM, an IC50 (MCF7 cells [1]; Homo sapiens, MCF7, 24 h, 24 h) of 0.881 ± 0.052 µM and an IC50 (MCF7 cells [1]; Homo sapiens, MCF7, 72 h, 72 h) of 0.682 ± 0.075 µM. The IC50 (HCT-116 cells [2]; 48 h) was 1.25 ± 0.156 µM, the IC50 (HCT-116 cells [2]; Homo sapiens, HCT-116, 24 h, 24 h) was 1.48 ± 0.129 µM and the IC50 (HCT-116 cells [2]; Homo sapiens, HCT-116, 72 h, 72 h) was 1.03 ± 0.33 µM. It also gave an IC50 at 24 h ([3]; 24 h) of 39.7 ± 7.3 µM, an IC50 at 72 h ([3]; 72 h) of 33.9 ± 8.23 µM and an IC50 (fR2 cells [4]) of 35.5 ± 6.12 µM. The SA-β-gal positive cells (MCF7 cells [5]) was 58%, the SA-β-gal positive cells (HCT-116 cells [6]) was 53% and the SA-β-gal positive cells (fR2 cells [7]) was 15–19%. For the same compound, the inhibition at 1 µM (MCF7 cells [8]) was over 70%, the inhibition at 1.5 µM (HCT-116 cells [9]) was over 70% and the “Cells in G2/M phase” value (MCF7 cells [10]) was 45.5%. For the same compound, the “Inhibition in tumor volume” value ([11]; each alternate day for two weeks, Balb/c mice) was 83.8%, the “Inhibition in tumor weight” value ([11]; each alternate day for two weeks, vs normal saline group) was 91.2% and the “Tolerability of treated animals” value ([11]; two weeks) was “remained healthy without any serious side effects or mortality”.
